Measured values from patent publication US20170290814A1, “METHODS OF TREATMENT OF CHOLESTASIS AND FIBROSIS” (GENFIT, priority 2016, published 2017).

Tested on: TGFβ1-induced expression of COL1A1 protein in human HSC
Experiment: Col1α1 ELISA on supernatants of TGFβ1-activated human HSC
Type: cell-based
Conditions: 48 h
Experimental: The human primary hepatic stellate cells (hHSC) (Innoprot) were cultured in STeCM medium (ScienCell cat #5301) that was supplemented with 2% fetal bovine serum (FBS, ScienCell cat #0010), 1% penicillin/streptomycin (ScienCell cat #0503) and stellate cell growth supplement (SteCGS; ScienCell cat #5352). Cell culture flasks were coated with Poly-L Lysine (Sigma cat #P4707) for a better adherence.
The human primary hepatic stellate cells (hHSC) (Innoprot) were cultured under standard conditions, as described above. The cells were subsequently plated at a density of 2×10^4cells/well or 6,5×10^3 cells/well into 96-well or 384-well plates respectively. The next day, cell-culture medium was removed, and cells were washed with PBS (Invitrogen cat #14190). Then, hHSC were deprived for 24 hours in serum-free and SteCGS-free medium. For the treatments with compounds of formula (I), the serum-deprived hHSC were preincubated for 1 hour with the compounds followed by addition of the profibrogenic stimuli TGFβ1 (PeproTech cat #100-21, 1 ng/mL) in serum-free and SteCGS-free medium for an additional 48 hour period. At the end of treatment, the cell culture supernatants of treated-HSC were transferred into a new plate before storage at −20° C.The cells were washed with PBS (Invitrogen, cat #14190) before the addition of lysis buffer (CelLytic™ MT reagent; Sigma #C3228). Plates were then incubated for 30 min on ice using a plate shaker, before storage at −20° C.
The level of the human pro-Collagen α1 (col1α1) was measured using a Sandwich ELISA (R&D systems,). Briefly, the wells of an ELISA plate were first coated with the capture antibody at room temperature overnight. After 3 washes in PBS +0.05% Tween 20, a blocking solution consisting of PBS +1% BSA was added for one hour followed by another washing cycle. […]
Serum-deprived HSC were preincubated for 1 hour with RM-5061 before the activation with the profibrogenic cytokine TGFβ1 (1 ng/ml). After 48 hours of incubation, the cellular α-SMA content as well as secreted COL1A1 were measured by ELISA. […]

CC(C)(C)[C@H](N)C(=O)Oc1ccccc1C(=O)Nc1ncc([N+](=O)[O-])s1 [RM-5061, (S)-2-(5-nitrothiazol-2-ylcarbamoyl)phenyl 2-amino-3,3-dimethylbutanoate]
effect on COL1A1 in human HSC (TGFβ1 1 ng/ml): reduced in a comparable manner | IC50 (secreted COL1A1, TGFβ1 1 ng/ml): 2670 nM | Max % I Over TGFβ, COL1A1 (secreted COL1A1, TGFβ1 1 ng/ml): 43%
